Results as given in US11834392B2, “KDM4B inhibitors for the treatment of inflammatory diseases and disorders” (MUSC FOUNDATION FOR RESEARCH DEVELOPMENT, priority 2019, dated 2023).
Entries after “also recorded” stand apart in the source; their conditions may differ.

Columns and labels:
KDM4B = target: T1, KDM4B (Homo sapiens, UniProt O94953); assay: KDM4B inhibition; assay type: biochemical
T1 sequence (O94953 1-1096): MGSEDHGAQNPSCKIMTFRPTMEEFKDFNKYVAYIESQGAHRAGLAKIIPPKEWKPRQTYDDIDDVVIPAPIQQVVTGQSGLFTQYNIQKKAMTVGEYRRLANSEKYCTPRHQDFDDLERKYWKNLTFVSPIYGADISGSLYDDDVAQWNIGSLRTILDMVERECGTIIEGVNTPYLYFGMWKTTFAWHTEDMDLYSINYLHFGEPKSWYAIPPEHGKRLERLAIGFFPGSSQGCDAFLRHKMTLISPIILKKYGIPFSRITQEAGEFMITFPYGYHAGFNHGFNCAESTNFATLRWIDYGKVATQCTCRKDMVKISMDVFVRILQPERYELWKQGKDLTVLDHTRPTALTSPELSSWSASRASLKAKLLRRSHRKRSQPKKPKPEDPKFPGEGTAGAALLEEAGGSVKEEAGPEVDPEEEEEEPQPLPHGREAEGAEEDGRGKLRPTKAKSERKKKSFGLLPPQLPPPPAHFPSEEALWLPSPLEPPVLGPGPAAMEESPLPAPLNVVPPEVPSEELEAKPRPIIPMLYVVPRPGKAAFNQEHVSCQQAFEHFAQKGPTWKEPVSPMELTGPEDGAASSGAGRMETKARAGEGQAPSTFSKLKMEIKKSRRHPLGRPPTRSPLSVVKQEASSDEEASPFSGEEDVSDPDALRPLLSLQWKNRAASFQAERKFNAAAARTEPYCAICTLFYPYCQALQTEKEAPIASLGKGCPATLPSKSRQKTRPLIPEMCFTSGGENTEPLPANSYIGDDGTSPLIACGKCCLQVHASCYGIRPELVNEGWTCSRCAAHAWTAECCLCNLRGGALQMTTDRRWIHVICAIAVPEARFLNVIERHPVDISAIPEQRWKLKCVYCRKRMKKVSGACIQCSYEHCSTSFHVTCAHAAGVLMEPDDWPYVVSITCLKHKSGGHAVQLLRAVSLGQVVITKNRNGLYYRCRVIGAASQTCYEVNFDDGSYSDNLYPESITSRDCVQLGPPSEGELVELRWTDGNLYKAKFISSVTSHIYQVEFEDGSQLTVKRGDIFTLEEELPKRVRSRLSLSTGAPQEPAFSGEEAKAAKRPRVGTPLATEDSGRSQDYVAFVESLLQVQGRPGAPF

H3K4me = assay: Global H3K4me levels in fluorescence-stained macrophages after Aa-LPS challenge; assay type: cell-based
Source text: (§1) As such, KDM4B represents a new therapeutic target for treating hyper-inflammatory diseases that result in, for example, bone destruction.

KDM4E = target: T2, KDM4E (Homo sapiens, UniProt B2RXH2); details: in vitro; cited from earlier work
T2 sequence (B2RXH2 1-506): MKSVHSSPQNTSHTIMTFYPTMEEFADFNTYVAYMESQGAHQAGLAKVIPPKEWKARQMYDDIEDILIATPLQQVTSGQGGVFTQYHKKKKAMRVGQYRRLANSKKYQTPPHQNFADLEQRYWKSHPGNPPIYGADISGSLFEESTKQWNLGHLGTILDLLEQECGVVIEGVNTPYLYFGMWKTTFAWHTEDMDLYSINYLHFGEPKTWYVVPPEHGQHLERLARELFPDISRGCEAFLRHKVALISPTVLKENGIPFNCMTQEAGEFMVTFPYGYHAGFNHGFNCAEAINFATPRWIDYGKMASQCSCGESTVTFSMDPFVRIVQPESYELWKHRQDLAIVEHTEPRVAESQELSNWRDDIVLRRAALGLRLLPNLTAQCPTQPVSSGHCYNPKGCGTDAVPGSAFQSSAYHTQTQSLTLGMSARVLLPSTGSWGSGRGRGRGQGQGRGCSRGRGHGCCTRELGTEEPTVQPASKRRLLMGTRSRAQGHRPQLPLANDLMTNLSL

[1] = cited from earlier work
osteoclast progenitors = assay: Aa-LPS-induced osteoclastogenesis; assay type: cell-based
Source text: as §1

cytomegalovirus = details: mice, high doses; cited from earlier work
[2] = tested on: bone marrow derived macrophages (BMDMs); assay: In vitro periodontal disease inflammation model (IL-6 ELISA after A.a LPS challenge); assay type: cell-based, C57BL/6 mice; details: for immunosuppressive action (pro-inflammatory cytokine response to A.a LPS): murine macrophages, A.a LPS challenge
Primary BMDMs [3] = assay: IL-10 expression by qRT-PCR in BMDMs; assay type: cell-based; details: 50 μM 1 hour pre-treatment, A.a LPS 100 ng/mL, 24 hours
Experimental: Primary BMDMs were isolated and differentiated as previously described and were pre-treated with ML324 at 50 μM for 1 hour followed by A.a LPS (100 ng/mL). […] (FIG. 5D)

Primary BMDMs [4] = assay: Extracellular flux analysis (seahorse XFe96); assay type: cell-based
Experimental: (§2) Primary BMDMs were isolated and differentiated as previously described and were pre-treated with ML324 at 50 uM for 1 hour followed by A.a LPS (100 ng/mL). 24 hours later, extracellular flux was analyzed using a seahorse XFe96 instrument and following metabolic analysis, cells were incubated with phalloidin 488 and DAPI. Representative images were acquired using the Hermes […] system at 10× for morphological analysis. N=4. […] Primary BMDMs were isolated and differentiated as previously described and were pre-treated with ML324 at 50 μM for 1 hour followed by A.a LPS (100 ng/mL). […] (FIG. 5D)

herpes simplex virus = details: mice, high doses; cited from earlier work
Solubility = assay type: physicochemical; details: at effective doses
Primary BMDMs [5] = assay: Macrophage morphology / polarization (phalloidin 488 and DAPI staining); assay type: cell-based; details: 50 μM 1 hour pre-treatment, A.a LPS 100 ng/mL, 24 hours
Experimental: as §2

H3K9me3 = H3K9me3 staining to confirm KDM4B inhibitory activity; assay type: cell-based

SMILES | IC50 (KDM4B) [µM] | activity toward KDM4B (KDM4B) | global H3K4me levels following Aa-LPS challenge (H3K4me) | inhibition of KDM4E (KDM4E) | cell permeability [1] | Aa-LPS-induced osteoclastogenesis (osteoclast progenitors) | viral replication of cytomegalovirus (cytomegalovirus) | immunosuppressive action (pro-inflammatory cytokine response to A.a LPS) [2] | immunosuppressive action (pro-inflammatory cytokine response to A.a LPS) ([2]; listed as 1) | IL-10 expression (mRNA) (Primary BMDMs [3]) | glycolytic activity of LPS treated cells (Primary BMDMs [4]; 50 μM 1 hour pre-treatment, A.a LPS 100 ng/mL, 24 hours) | spare respiratory capacity (Primary BMDMs [4]; LPS with or without ML324, compared to PBS control) | viral replication of herpes simplex virus (herpes simplex virus) | solubility (Solubility) | macrophage morphology / polarization (M1 phenotype) (Primary BMDMs [5]) | dose-dependent immunosuppressive response to A.a LPS [2] | H3K9me3 expression / staining (H3K9me3)
CN(C)CCCNC(=O)c1ccc(-c2cc(O)c3ncccc3c2)cc1 [ML324] | 4.9 | active | prevented by KDM4B inhibition | known to inhibit | good cell permeability | significant reduction | shown to inhibit viral replication | decreases the pro-inflammatory cytokine response | immunosuppressive action | significantly higher IL-10 expression | rescued this effect | reduced spare respiratory capacity | shown to inhibit viral replication | highly insoluble at effective doses | alters macrophage polarization; also recorded: able to rescue this effect | – | –
O=C(Nc1ccccc1C(=O)O)c1ccc(-c2ccccc2)cc1 [Compound 12, 2-([1,1′-biphenyl]-4-carboxamido)benzoic acid] | – | – | – | – | – | – | – | – | – | – | – | – | – | – | – | dose-dependent immunosuppressive response; also recorded: dose-dependent immunosuppressive effect | concurrent increase in H3K9me3; also recorded: increase in H3K9me3 staining
